Experimental data from patent publication US11793779B2, “Hica for use in prophylaxis and/or treatment of a disease or condition involving degradation of cartilage and/or disruption of cartilage homeostasis and/or integrity” (Salarusta Oy, priority 2020, dated 2023).

Tests used:
[1] = molecular target: T1, human Matrix metalloproteinase 13 (MMP-13) (Homo sapiens, UniProt P45452); assay: MMP-13 mediated break down of aggrecan (SDS-PAGE, silver stain); assay type: biochemical; details: 10% racemic HICA, APMA-activated MMP-13, incubation 2 d, FIG. 1 line 11
T1 construct: purchased BioTeZ, Berlin-Buch, Berlin, Germany 30100802
Procedure: (§1) As positive inhibitor controls Ilomastat (Ilo, CC1010, Millipore) and chlorhexidine (CHX, Corsodyl®, [2 mg/ml] (GlaxoSmithKline, Brøndby, Denmark) were used and 50 mM Tris-HCl-buffer (TNC): pH 7.5; 0.2 M NaCl; 1.0 mM CaCl2) was used as neutral assay buffer.
(§2) MMP-13 was preincubated 1 hour at 37° C. with p-aminophenylmercuric acetate (APMA, A9563, Sigma-Aldrich) to optimally activate (pro)MMP-13. As substrate, Aggrecan was added and then ADAMTS-5 or activated MMP-13 as catalytic/proteolytic enzyme and TNC, as neutral control, and 10% HICA, CHX or Ilo as protease/MMP-inhibitors let incubated together from 1 hour (h) to 2 days (d). The enzyme reactions terminated by boiling with modified Laemmli buffer. The samples were analysed by 8% SDS-PAGE and after electrophoresis the defragmentation of Aggrecan was visualised using Silver Stain Pierce®.
(§3) Sample with concentrations in lines: • 1. 0.25 μl molecular weight standards. Bio-Rad • 2. 4.2 μl Aggrecan (0.5 μg/μl) • 3. 4 μl ADAMTS-5 (0.1 μg/μl) • 4. 4.2 μl Aggrecan+4 μl ADAMTS-5+6 μl TNC-buffer. inc: 2d • 5. 4.2 μl Aggrecan+4 μl ADAMTS-5+6 μl 10% HICA. inc: 2d • 6. 4.2 μl Aggrecan+4 μl ADAMTS-5+6 μl CHX (2 mg/ml). inc: 2d • 7. 1 μl MMP-13 (0.2 μg/μl)+3 μl 2 mM APMA+6 μl TNC • 8. 4.2 μl Aggrecan+1 μl MMP-13 (0.2 μg/μl)+3 μl 2 mM APMA+6 μl TNC. inc: 1h • 9. 4.2 μl Aggrecan+1 μl MMP-13 (0.2 μg/μl)+3 μl 2 mM APMA+6 μl TNC. inc: 2d • 10. […]

[2] = molecular target: T2, recombinant human ADAMTS-5 (Homo sapiens, UniProt Q9UNA0); assay: ADAMTS-5 mediated break down of aggrecan (SDS-PAGE, silver stain); assay type: biochemical; details: 10% racemic HICA, pH 7.4, incubation 2 d, FIG. 1 line 5
T2 construct: purchased Chemicon International Inc. CC1034
T2 sequence (Q9UNA0 262-930): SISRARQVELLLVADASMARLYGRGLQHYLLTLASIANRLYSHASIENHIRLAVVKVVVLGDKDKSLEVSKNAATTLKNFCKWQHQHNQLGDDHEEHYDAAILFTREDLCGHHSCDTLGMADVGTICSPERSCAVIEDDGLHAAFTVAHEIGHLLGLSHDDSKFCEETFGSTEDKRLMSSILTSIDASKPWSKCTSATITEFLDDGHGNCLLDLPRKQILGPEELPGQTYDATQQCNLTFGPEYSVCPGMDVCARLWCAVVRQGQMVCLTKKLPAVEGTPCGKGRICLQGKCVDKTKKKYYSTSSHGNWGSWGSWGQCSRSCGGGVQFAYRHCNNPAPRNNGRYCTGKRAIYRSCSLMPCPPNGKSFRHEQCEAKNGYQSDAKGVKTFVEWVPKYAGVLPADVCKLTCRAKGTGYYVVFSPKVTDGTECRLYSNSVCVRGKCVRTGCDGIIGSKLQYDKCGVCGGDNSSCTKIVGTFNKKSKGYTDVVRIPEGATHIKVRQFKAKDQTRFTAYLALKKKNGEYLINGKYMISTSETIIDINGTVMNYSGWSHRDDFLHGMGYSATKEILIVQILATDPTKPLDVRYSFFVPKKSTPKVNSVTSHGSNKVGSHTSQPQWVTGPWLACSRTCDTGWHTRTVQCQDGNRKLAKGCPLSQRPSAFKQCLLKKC
Procedure: as §1, §2, §3

SMILES: CC(C)CC(O)C(=O)O (racemic) [HICA, 2-hydroxy-4-methylpentanoic acid]
- inhibition of break down of Aggrecan by MMP-13 [1]: inhibited the break down of Aggrecan
- inhibition of break down of Aggrecan by ADAMTS-5 [2]: inhibited the break down of Aggrecan
